# Reference: patent publication US11912665B1, “4-(2,4,5-tris(4-chlorophenyl)-1H-imidazol-1-yl)butanoic acid as an antimicrobial compound” (KING FAISAL UNIVERSITY, priority 2023, dated 2024)
# Columns and labels:
# Type in all cases: cell-based
# [1] = tested on: Bacillus cereus; assay: agar plate disc-diffusion, antibacterial activity; conditions: nutrient agar, 37° C., 48 hours, DMSO zone subtracted; for inhibition zone Bacillus Cereus B: B = concentration of comp. = 30,000 μL; for inhibition zone Bacillus Cereus C: C = concentration of comp. = 50,000 μL
# Description: (§1) The agar plate disc-diffusion method was applied. […] The discs were then placed onto the surface of agar plates (nutrient agar for bacteria and Sabouraud's dextrose agar for fungi) seeded with the test organism. Each plate contained 15 mL of the agar medium, previously seeded with 0.2 mL of the broth culture of each organism pregrown for 18 hours. The plates were incubated at 37° C. for 48 hours, and 72 hours for fungi. The inhibition zones were measured in millimeters (mm). Discs impregnated with DMSO were used as a control, and its inhibition zone was subtracted from the tested compound actual inhibition zone.
# [2] = tested on: Staphylococcus aureus; assay: agar plate disc-diffusion, antibacterial activity; conditions: nutrient agar, 37° C., 48 hours, DMSO zone subtracted; for inhibition zone Staphylococcus aureus A: A = concentration of comp. = 10,000 μL; for inhibition zone Staphylococcus aureus B: B = concentration of comp. = 30,000 μL; for inhibition zone Staphylococcus aureus C: C = concentration of comp. = 50,000 μL
# Description: as §1
# [3] = tested on: Chrysosporium keratinophilum; assay: agar plate disc-diffusion, antifungal activity; conditions: Sabouraud's dextrose agar, 72 hours, DMSO zone subtracted; for inhibition zone Chrysosporium keratinophilum A: A = concentration of comp. = 10,000 μL; for inhibition zone Chrysosporium keratinophilum B: B = concentration of comp. = 30,000 μL; for inhibition zone Chrysosporium keratinophilum C: C = concentration of comp. = 50,000 μL
# Description: as §1
# [4] = tested on: Aspergillus flavus; assay: agar plate disc-diffusion, antifungal activity; conditions: Sabouraud's dextrose agar, 72 hours, DMSO zone subtracted; for inhibition zone Aspergillus flavus A: A = concentration of comp. = 10,000 μL; for inhibition zone Aspergillus flavus B: B = concentration of comp. = 30,000 μL; for inhibition zone Aspergillus flavus C: C = concentration of comp. = 50,000 μL
# Description: as §1
# [5] = tested on: Pseudomonas aeruginosa; assay: agar plate disc-diffusion, antibacterial activity; conditions: nutrient agar, 37° C., 48 hours, DMSO zone subtracted; for inhibition zone Pseudomonas aeruginosa A: A = concentration of comp. = 10 mg/mL; for inhibition zone Pseudomonas aeruginosa B: B = concentration of comp. = 30,000 μL; for inhibition zone Pseudomonas aeruginosa C: C = concentration of comp. = 50,000 μL
# Description: (§2) The agar plate disc-diffusion method was applied. Sterilized filter papers (6 mm in diameter) were wetted with 10 μL of a solution of 4-(2,4,5-tris(4-chlorophenyl)-1H-imidazol-1-yl)butanoic acid (V) to be tested, containing 10 mg/mL in DMSO, and the discs were allowed to air dry. The discs were then placed onto the surface of agar plates (nutrient agar for bacteria and Sabouraud's dextrose agar for fungi) seeded with the test organism. Each plate contained 15 mL of the agar medium, previously seeded with 0.2 mL of the broth culture of each organism pregrown for 18 hours. The plates were incubated at 37° C. for 48 hours, and 72 hours for fungi. The inhibition zones were measured in millimeters (mm). Discs impregnated with DMSO were used as a control, and its inhibition zone was subtracted from the tested compound actual inhibition zone.
# [6] = tested on: Escherichia coli; assay: agar plate disc-diffusion, antibacterial activity; conditions: nutrient agar, 37° C., 48 hours, DMSO zone subtracted; for inhibition zone Escherichia coli A: A = concentration of comp. = 10,000 μL; for inhibition zone Escherichia coli B: B = concentration of comp. = 30,000 μL; for inhibition zone Escherichia coli C: C = concentration of comp. = 50,000 μL
# Description: as §2
SMILES,inhibition zone Bacillus Cereus A [1] [mm],inhibition zone Bacillus Cereus B [1] [mm],inhibition zone Bacillus Cereus C [1] [mm],inhibition zone Staphylococcus aureus A [2] [mm],inhibition zone Staphylococcus aureus B [2] [mm],inhibition zone Staphylococcus aureus C [2] [mm],inhibition zone Chrysosporium keratinophilum A [3] [mm],inhibition zone Chrysosporium keratinophilum B [3] [mm],inhibition zone Chrysosporium keratinophilum C [3] [mm],inhibition zone Aspergillus flavus A [4] [mm],inhibition zone Aspergillus flavus B [4] [mm],inhibition zone Aspergillus flavus C [4] [mm],inhibition zone Pseudomonas aeruginosa A [5] [mm],inhibition zone Pseudomonas aeruginosa B [5] [mm],inhibition zone Pseudomonas aeruginosa C [5] [mm],inhibition zone Escherichia coli A [6] [mm],inhibition zone Escherichia coli B [6] [mm],inhibition zone Escherichia coli C [6] [mm]
"O=C(O)c1cn(C2CC2)c2cc(N3CCNCC3)c(F)cc2c1=O [Cip., ciprofloxacin]",29,31,42,42,44,53,29,30,53,29,30,42,29,30,53,30,39,60
"O=C(O)CCCn1c(-c2ccc(Cl)cc2)nc(-c2ccc(Cl)cc2)c1-c1ccc(Cl)cc1 [V, 4-(2,4,5-tris(4-chlorophenyl)-1H-imidazol-1-yl)butanoic acid]",19,25,40,14,19,26,25,28,49,16,22,36,26,31,46,24,35,51
